22 compounds from ChEMBL document CHEMBL1127936, “Mercaptoacyl dipeptides as dual inhibitors of angiotensin-converting enzyme and neutral endopeptidase. Preliminary structure-activity studies” (Bioorg Med Chem Lett, 1994) can be followed below.

The target of one assay is T1, Neprilysin (Rattus norvegicus, UniProt P07861).
T1 sequence (P07861 whole entry): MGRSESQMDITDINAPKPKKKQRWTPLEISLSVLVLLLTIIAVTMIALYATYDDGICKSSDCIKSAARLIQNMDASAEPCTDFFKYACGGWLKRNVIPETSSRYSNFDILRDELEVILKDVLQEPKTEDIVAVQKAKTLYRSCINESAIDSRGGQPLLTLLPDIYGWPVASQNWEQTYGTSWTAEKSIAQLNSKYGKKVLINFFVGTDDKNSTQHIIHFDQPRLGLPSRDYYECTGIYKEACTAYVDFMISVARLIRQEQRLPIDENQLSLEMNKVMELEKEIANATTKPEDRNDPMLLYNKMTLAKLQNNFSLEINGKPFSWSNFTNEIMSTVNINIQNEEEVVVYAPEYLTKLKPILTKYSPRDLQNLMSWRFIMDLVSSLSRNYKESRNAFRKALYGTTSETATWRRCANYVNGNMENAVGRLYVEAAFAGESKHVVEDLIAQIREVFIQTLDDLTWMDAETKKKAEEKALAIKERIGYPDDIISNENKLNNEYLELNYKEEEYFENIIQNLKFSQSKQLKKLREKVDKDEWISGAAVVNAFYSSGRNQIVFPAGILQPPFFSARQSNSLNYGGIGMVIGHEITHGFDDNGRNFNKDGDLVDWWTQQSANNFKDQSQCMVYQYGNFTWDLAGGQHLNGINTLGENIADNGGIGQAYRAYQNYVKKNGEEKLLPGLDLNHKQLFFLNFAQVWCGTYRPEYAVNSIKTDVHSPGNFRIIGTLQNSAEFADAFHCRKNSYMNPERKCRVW
Kind of assay: In vitro inhibition of rat kidney neutral endopeptidase (NEP) by fluorometric assay using Dansyl-Gly-Phe-Arg as substrate.

The target in assay [1] is T2, Angiotensin-converting enzyme (Oryctolagus cuniculus, UniProt P12822).
T2 sequence (P12822 whole entry): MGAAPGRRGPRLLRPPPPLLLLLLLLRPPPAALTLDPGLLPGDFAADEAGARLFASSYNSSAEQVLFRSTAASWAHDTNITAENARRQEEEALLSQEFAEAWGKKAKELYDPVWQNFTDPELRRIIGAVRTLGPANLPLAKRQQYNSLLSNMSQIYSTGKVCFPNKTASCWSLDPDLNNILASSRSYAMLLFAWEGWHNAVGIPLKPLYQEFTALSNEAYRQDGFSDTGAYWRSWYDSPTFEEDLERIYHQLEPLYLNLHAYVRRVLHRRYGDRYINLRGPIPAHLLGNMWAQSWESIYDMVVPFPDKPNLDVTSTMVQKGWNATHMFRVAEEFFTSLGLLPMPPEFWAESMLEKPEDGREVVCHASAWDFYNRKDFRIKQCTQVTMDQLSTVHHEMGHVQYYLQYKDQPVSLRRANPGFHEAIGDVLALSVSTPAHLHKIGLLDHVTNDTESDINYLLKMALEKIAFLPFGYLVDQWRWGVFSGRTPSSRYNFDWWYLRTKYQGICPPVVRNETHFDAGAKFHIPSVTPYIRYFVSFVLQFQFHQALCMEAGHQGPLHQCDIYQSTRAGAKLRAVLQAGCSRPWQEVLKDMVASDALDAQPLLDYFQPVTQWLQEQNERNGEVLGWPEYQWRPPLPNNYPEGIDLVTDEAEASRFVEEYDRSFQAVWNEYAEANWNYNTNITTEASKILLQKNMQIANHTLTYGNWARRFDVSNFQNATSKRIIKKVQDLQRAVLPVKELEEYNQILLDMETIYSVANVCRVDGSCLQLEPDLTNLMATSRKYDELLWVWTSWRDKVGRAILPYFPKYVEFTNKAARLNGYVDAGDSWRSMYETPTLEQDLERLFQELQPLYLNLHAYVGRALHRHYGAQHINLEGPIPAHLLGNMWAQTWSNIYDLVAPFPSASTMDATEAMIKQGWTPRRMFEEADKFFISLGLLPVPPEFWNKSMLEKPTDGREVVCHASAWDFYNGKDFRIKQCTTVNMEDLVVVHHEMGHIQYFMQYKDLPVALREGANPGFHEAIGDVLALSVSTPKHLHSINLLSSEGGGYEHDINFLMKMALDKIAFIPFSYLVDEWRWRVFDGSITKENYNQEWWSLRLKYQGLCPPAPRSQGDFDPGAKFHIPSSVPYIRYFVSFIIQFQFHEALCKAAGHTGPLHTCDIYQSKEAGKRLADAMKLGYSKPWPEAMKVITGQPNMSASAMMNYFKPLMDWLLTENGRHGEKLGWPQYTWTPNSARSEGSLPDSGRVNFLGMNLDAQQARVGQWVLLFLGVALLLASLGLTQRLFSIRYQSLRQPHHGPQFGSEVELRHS
The assay can be described thus: In vitro inhibition of rabbit lung Angiotensin I converting enzyme (ACE) using Hippuryl-His-Leu as substrate.

Assay [2] deals with Rattus norvegicus. Kind of assay: In vivo inhibition of angiotensin I-induced pressor response after iv administration in normotensive rats. The format is functional.
Assay [3] relates to Rattus norvegicus. The assay can be described thus: In vivo inhibition of angiotensin- 1 induced pressor response after iv administration in normotensive rats. The format is functional.

Consider `C[C@H](NC(=O)[C@H](Cc1ccccc1)[C@H](C)S)C(=O)N1CCC[C@H]1C(=O)O`, for which the 50% inhibitory concentration (IC50) (commonly the concentration at which inhibition is half-maximal) against Neprilysin amounted to 32 nM; in assay [1], 452 nM.

`CC(C)C[C@H](NC(=O)[C@@H](CS)Cc1ccccc1)C(=O)O`: half-maximal inhibition in assay [1] (IC50) required 37 nM.

On to `C[C@H](NC(=O)C(CS)CCc1ccccc1)C(=O)N1CCC[C@@H]1C(=O)O` (stereo not given in full), for which the IC50 against Neprilysin came to 160 nM; in assay [1], 290 nM.

With `CCC[C@H](NC(=O)[C@@H](CS)Cc1ccccc1)C(=O)N1CCC[C@H]1C(=O)O`, the values for the IC50 (against Neprilysin; in assay [1]) were 2 nM and 10 nM, respectively. For the same compound, the 50% effect level in the assay with Rattus norvegicus [2] (ED50) was put at a dose of 2.2 µmol/kg.

On to `C[C@H](NC(=O)[C@@H](CS)Cc1ccccc1)C(=O)N1C[C@@H](Sc2ccccc2)C[C@H]1C(=O)O`, for which the figures for the concentration for half-maximal inhibition (IC50) (against Neprilysin; in assay [1]) were 1.6 nM and 8.7 nM, respectively. In the assay with Rattus norvegicus [2], the ED50 (in general, the dose that gives a 50% effect, or the effect in half of the subjects) is 0.78 µmol/kg.

With `CC(C)C[C@H](NC(=O)[C@@H](S)Cc1ccccc1)C(=O)O`, the IC50 in assay [1] is 1600 nM.

In the case of `C[C@H](NC(=O)[C@@H](CS)Cc1ccccc1)C(=O)N1CCC[C@H]1C(=O)O`, the values for the IC50 (at Neprilysin; in assay [1]) were 6.6 nM and 4 nM, respectively. In the assay on Rattus norvegicus [2], the 50% effect level (ED50) was put at a dose of 0.5 µmol/kg.

As to `C[C@H](NC(=O)[C@@H](CS)Cc1ccc(OCc2ccccc2)cc1)C(=O)N1CCC[C@@H]1C(=O)O`, the half-maximal inhibitory concentration (IC50) against Neprilysin is 40 nM; in assay [1], 880 nM.

Turning to `C[C@H](NC(=O)[C@@H](CS)Cc1ccccc1)C(=O)N1c2ccccc2C[C@H]1C(=O)O`, the IC50 against Neprilysin stood at 2.6 nM; in assay [1], 7.8 nM. Besides, the ED50 in the assay on Rattus norvegicus [2] worked out at 0.15 µmol/kg.

In the case of `C[C@H](CS)C(=O)N[C@@H](C)C(=O)N1CCC[C@@H]1C(=O)O`, the IC50 amounted to 140 nM against Neprilysin and 1800 nM in assay [1].

In the case of `C[C@H](NC(=O)[C@@H](S)Cc1ccccc1)C(=O)N1CCC[C@H]1C(=O)O`, the IC50 came out at 400 nM at Neprilysin and 30 nM in assay [1]. In the assay with Rattus norvegicus [2], this compound came in with an ED50 of 0.06 µmol/kg.

Regarding `CC(C)CC(CS)C(=O)N[C@@H](C)C(=O)N1CCC[C@@H]1C(=O)O` (stereo not given in full), the half-inhibitory concentration (IC50) was found to be 10 nM on Neprilysin and 490 nM in assay [1].

`C[C@H](NC(=O)[C@@H](CS)Cc1ccccc1)C(=O)O` displayed an ED50 in the assay on Rattus norvegicus [3] of 15 µmol/kg. This compound returned an IC50 in assay [1] of 120 nM.

For `O=C(N[C@@H](Cc1c[nH]c2ccccc12)C(=O)N1CCC[C@H]1C(=O)O)[C@@H](CS)Cc1ccccc1`, the figures for the IC50 (against Neprilysin; in assay [1]) were 25 nM and 10 nM, respectively. The compound also had a 50% effective dose (ED50) with Rattus norvegicus [2] of 6.4 µmol/kg.

Regarding `C[C@H](NC(=O)[C@H](Cc1ccccc1)[C@@H](C)S)C(=O)N1CCC[C@H]1C(=O)O`, the IC50 against Neprilysin is 182 nM; in assay [1], 78 nM. This compound displayed an ED50 in the assay on Rattus norvegicus [2] of more than 5 µmol/kg.

As to `C[C@H](NC(=O)[C@@H](CS)Cc1ccccc1)C(=O)N1Cc2ccccc2C[C@H]1C(=O)O`, the values for the concentration for half-maximal inhibition (IC50) (at Neprilysin; in assay [1]) were 3.9 nM and 14 nM, respectively. Besides, it took a dose of 0.57 µmol/kg to reach the 50% effect level in the assay with Rattus norvegicus [2] (ED50).

`C[C@H](NC(=O)[C@@H](CS)Cc1ccccc1Cl)C(=O)N1CCC[C@@H]1C(=O)O`: the IC50 against Neprilysin turned out to be 2.2 nM; in assay [1], 25 nM. In addition, the ED50 in the assay with Rattus norvegicus [2] is 2.6 µmol/kg.

As to `C[C@H](NC(=O)[C@H](CS)Cc1ccccc1)C(=O)N1CCC[C@H]1C(=O)O`, the IC50 turned out to be 45 nM at Neprilysin and 210 nM in assay [1]. For the same compound, it took a dose of 8.1 µmol/kg to reach the 50% effect level with Rattus norvegicus [2] (ED50).

As to `Cc1ccccc1C[C@H](CS)C(=O)N[C@@H](C)C(=O)N1CCC[C@@H]1C(=O)O`, the IC50 on Neprilysin worked out at 6.2 nM; in assay [1] it was 69 nM. For the same compound, in the assay on Rattus norvegicus [2], the 50% effect level (ED50) was put at a dose of 4.2 µmol/kg.

On to `O=C(O)CCNC(=O)[C@@H](CS)Cc1ccccc1`, for which the IC50 against Neprilysin was determined as 9.4 nM; in assay [1], 32000 nM.

Turning to `C[C@H](NC(=O)[C@H](S)Cc1ccccc1)C(=O)N1CCC[C@H]1C(=O)O`, the IC50 against Neprilysin turned out to be 285 nM; in assay [1] it was 80 nM. The same compound gave an ED50 with Rattus norvegicus [2] of 0.03 µmol/kg.

For the compound `C[C@H](NC(=O)[C@@H](CS)Cc1ccccc1)C(=O)N1C[C@H](C2CCCCC2)C[C@H]1C(=O)O`, the figures for the IC50 (against Neprilysin; in assay [1]) were 6.6 nM and 18 nM, respectively. In the assay with Rattus norvegicus [2], this compound came in with an ED50 of 2.5 µmol/kg.
